What all share (assay type): cell-based
In test [1] the test system is Escherichia coli (ATCC 25922). Put plainly: MIC by broth microdilution. As to the method: (§1) The antibacterial potency of the test article(s) was measured using the in vitro broth microdilution assay under assay conditions described by the Clinical and Laboratory Standards Institute. […] The test substance was dissolved in 100% DMSO, suspended completely by sonication or vortexing, diluted by 2-fold serial titrations in the same vehicle, for a total of 11 test concentrations. A 4 μL aliquot of each dilution was added to 196 μL of broth medium seeded with the organism suspension in wells of a 96 well plate (bacterial count: 2−8×10^5 colony forming units/mL final). The final volume was 200 μL in each well and the final DMSO concentration was 2 percent. Following incubation for 1 day at 36° C., the test plates were visually examined and wells were scored for growth or complete growth inhibition to define the minimum inhibitory concentration. Each test substance was evaluated in duplicate and the results were reported as the duplicate test values. Vehicle-control and an active reference agent were used as blank and positive controls, respectively. Microorganisms tested were Acinetobacter baumannii (ATCC 17978), Enterococcus faecalis (ATCC 29212), Enterococcus faecium VanA (ATCC 700221), Escherichia coli (ATCC 25922), Escherichia coli efflux defective DEL-tolC (JW5503), Heamophilus influenzae (ATCC 49247), Klebsiella pneumoniae (ATCC 43816), Pseudomonas aeruginosa (ATCC 27853), Pseudomonas aeruginosa MDR (NTUH-974), Staphylococcus aureus (ATCC 29213), Staphylococcus aureus MRSA (ATCC 33591) and Streptococcous pneumoniae (ATCC 46919). H. influenzae was grown in Haemophilus Test Medium and S. pneumoniae was grown in cation adjusted Muller-Hinton Broth II with 5% lysed horse blood. All other microorganisms were grown in cation adjusted Muller-Hinton Broth II.
(§2) The antibacterial potency of the test article(s) was measured using the in vitro broth microdilution assay under assay conditions described by the Clinical and Laboratory Standards Institute. […] The test substance was dissolved in 100% DMSO (unless stated below), suspended completely by sonication or vortexing, diluted by 2-fold serial titrations in the same vehicle, for a total of 11 test concentrations. A 4 μL aliquot of each dilution was added to 196 μL of broth medium seeded with the organism suspension in wells of a 96 well plate (bacterial count: 2−8×10^5 colony forming units/mL final). The final volume was 200 μL in each well and the final DMSO concentration was 2 percent. Following incubation, the test plates were visually examined and wells were scored for growth or complete growth inhibition to define the minimum inhibitory concentration. Each test substance was evaluated in duplicate and the results below are the duplicate test values. Vehicle-control and an active reference agent were used as blank and positive controls, respectively.

Test [2] relates to Pseudomonas aeruginosa, MDR (NTUH-974). Put plainly: MIC by broth microdilution. To be noted: Table 2, Example 2. As to the method:
as §1, §2
On the technique in general: Broth dilution looks for growth in wells or tubes with falling amounts of substance.

Test [3] relates to Pseudomonas aeruginosa (ATCC 27853). In words: MIC by broth microdilution. Here is the method:
as §1, §2

Test [4] has as its system Acinetobacter baumannii (ATCC 17978). In words: MIC by broth microdilution. As to the method:
as §1, §2

Test [5] deals with Klebsiella pneumoniae (ATCC 43816). In words: MIC by broth microdilution. Here is the method: as §1, §2
The subject of test [6] is Escherichia coli, efflux defective DEL-tolC (JW5503). In words: MIC by broth microdilution. Here is the method:
as §1, §2

The subject of test [7] is Gram-negative bacteria. In words: MIC by broth microdilution, overall statement in words. Conditions: for effectiveness against the bacteria of Table 2: Example 2, statement in words. Here is the method: as §1, §2
Test [8] has as its system Haemophilus influenzae (ATCC 49247). Put plainly: MIC by broth microdilution. To be noted: Table 2, Example 2. As to the method:
as §2

In test [9] the test system is Staphylococcus aureus (ATCC 29213). Put plainly: MIC by broth microdilution. To be noted: Table 1, Example 1. As to the method:
as §1

Test [10] has as its system Staphylococcus aureus, MRSA (ATCC 33591). Put plainly: MIC by broth microdilution. To be noted: Table 1, Example 1. As to the method: as §1
Test [11] relates to Enterococcus faecalis (ATCC29212). Put plainly: MIC by broth microdilution. To be noted: Table 1, Example 1. As to the method: as §1
Test [12] concerns Enterococcus faecium, VanA (ATCC 700221). In words: MIC by broth microdilution. To be noted: Table 1, Example 1. Here is the method: as §1

Molecules are shown by their SMILES.

On to `CN(C)Cc1ccc(/C=C/c2cc(/C=C/c3ccc(CC(N)=O)cc3)cc(/C=C/c3ccc(CC(N)=O)cc3)c2)cc1` [Compound 15], for which the MIC is over 128 µg/mL in test [1] (Table 2, Example 2); over 128 µg/mL in test [2]; over 128 µg/mL in test [3] (Table 2, Example 2); over 128 µg/mL in [4] (Table 2, Example 2); over 128 µg/mL in [5] (Table 2, Example 2); over 128 µg/mL in [6] (Table 2, Example 2). This compound returned an MIC in test [8] of over 128 µg/mL. The “effectiveness against the bacteria of Table 2” value (shortened to “effectiveness”) in test [7] was “ineffective”.
For the compound `N#Cc1ccc(CCc2cc(CCc3ccc(C#N)cc3)cc(CCc3ccc(C#N)cc3)c2)cc1` [Compound 4 (TSB064)], the MIC in [1] (Table 2, Example 2) is over 32.0 µg/mL; in [2], over 32.0 µg/mL; in test [3] (Table 2, Example 2), over 32.0 µg/mL; in test [4] (Table 2, Example 2) it was over 32.0 µg/mL; in [5] (Table 2, Example 2), over 32.0 µg/mL; in test [6] (Table 2, Example 2) it was over 32.0 µg/mL. Further, the MIC in test [8] was over 32.0 µg/mL.
With `CN(C)c1ccc(CCc2cc(CCc3ccc(N(C)C)cc3)cc(CCc3ccc(N(C)C)cc3)c2)cc1` [Compound 11 (TSB010)], the MIC in [1] (Table 2, Example 2) was over 32.0 µg/mL; in test [2], over 32.0 µg/mL; in test [3] (Table 2, Example 2) it was over 32.0 µg/mL; in test [4] (Table 2, Example 2), over 32.0 µg/mL; in test [5] (Table 2, Example 2), over 32.0 µg/mL; in test [6] (Table 2, Example 2) it was over 32.0 µg/mL. Besides, the MIC in test [8] is over 32.0 µg/mL.
Consider `CN(C)C(=O)c1ccc(CCc2cc(CCc3ccc(C(=O)N(C)C)cc3)cc(CCc3ccc(C(=O)N(C)C)cc3)c2)cc1` [Compound 5 (TSB032)], for which the MIC in test [1] (Table 2, Example 2) is over 32.0 µg/mL; in [2], over 32.0 µg/mL; in test [3] (Table 2, Example 2), over 32.0 µg/mL; in test [4] (Table 2, Example 2), over 32.0 µg/mL; in test [5] (Table 2, Example 2) it was over 32.0 µg/mL; in test [6] (Table 2, Example 2), over 32.0 µg/mL. In test [8], this compound returned an MIC of over 32.0 µg/mL.
On to `CN(C)Cc1ccc(/C=C/c2cc(/C=C/c3ccc(CC(=O)O)cc3)cc(/C=C/c3ccc(CC(=O)O)cc3)c2)cc1` [Compound 16], for which the MIC is over 128 µg/mL in [1] (Table 2, Example 2); over 128 µg/mL in test [2]; over 128 µg/mL in test [3] (Table 2, Example 2); over 128 µg/mL in test [4] (Table 2, Example 2); over 128 µg/mL in test [5] (Table 2, Example 2); over 128 µg/mL in [6] (Table 2, Example 2). The compound also showed an MIC in test [8] of over 128 µg/mL. Besides, in [7], the “effectiveness” value is “ineffective”.
On to `CN(C)Cc1ccc(/C=C/c2cc(/C=C/c3ccc(CC(N)=O)cc3)cc(/C=C/c3ccc(CC(=O)O)cc3)c2)cc1` [Compound 14], for which the MIC was over 128 µg/mL in test [1] (Table 2, Example 2); over 128 µg/mL in test [2]; over 128 µg/mL in [3] (Table 2, Example 2); over 128 µg/mL in test [4] (Table 2, Example 2); over 128 µg/mL in test [5] (Table 2, Example 2); over 128 µg/mL in [6] (Table 2, Example 2). This compound also registered an MIC in test [8] of over 128 µg/mL. Further, the “effectiveness” value in test [7] was “ineffective”.
Take `N#Cc1ccc(/C=C/c2cc(/C=C/c3ccc(C#N)cc3)cc(/C=C/c3ccc(C#N)cc3)c2)cc1` [Compound 3]: the MIC was over 128 µg/mL in [1] (Table 2, Example 2); over 128 µg/mL in [2]; over 128 µg/mL in [3] (Table 2, Example 2); over 128 µg/mL in test [4] (Table 2, Example 2); over 128 µg/mL in test [5] (Table 2, Example 2); over 128 µg/mL in test [6] (Table 2, Example 2). The MIC in test [8] is over 128 µg/mL.
Consider `Nc1ccc(CCc2cc(CCc3ccc(N)cc3)cc(CCc3ccc(N)cc3)c2)cc1` [Compound 2 (TSB014)], for which the MIC in test [1] (Table 2, Example 2) is over 32.0 µg/mL; in test [2], over 32.0 µg/mL; in test [3] (Table 2, Example 2), over 32.0 µg/mL; in test [4] (Table 2, Example 2) it was over 32.0 µg/mL; in test [5] (Table 2, Example 2) it was over 32.0 µg/mL; in test [6] (Table 2, Example 2) it was over 32.0 µg/mL. In test [8], the MIC was over 32.0 µg/mL.
As for `NC(=O)Cc1ccc(/C=C/c2cc(/C=C/c3ccc(CC(N)=O)cc3)cc(/C=C/c3ccc(CC(N)=O)cc3)c2)cc1` [Compound 17], the MIC is over 128 µg/mL in test [1] (Table 2, Example 2); over 128 µg/mL in test [2]; over 128 µg/mL in test [3] (Table 2, Example 2); over 128 µg/mL in [4] (Table 2, Example 2); over 128 µg/mL in test [5] (Table 2, Example 2); over 128 µg/mL in [6] (Table 2, Example 2). Also, in test [8], the MIC is over 128 µg/mL.
In the case of `C[N+](C)(C)Cc1ccc(/C=C/c2cc(/C=C/c3ccc(C[N+](C)(C)C)cc3)cc(/C=C/c3ccc(C[N+](C)(C)C)cc3)c2)cc1.[I-].[I-].[I-]` [Compound 1], the MIC in test [1] (Table 1, Example 1) was 64 µg/mL; in test [1] (Table 2, Example 2) it was 64 µg/mL; in [2] it was over 128 µg/mL; in test [3] (Table 1, Example 1), over 256 µg/mL; in test [3] (Table 2, Example 2) it was over 128 µg/mL; in test [4] (Table 1, Example 1), 128 µg/mL. In addition, the MIC amounted to 128 µg/mL in test [4] (Table 2, Example 2); 128 µg/mL in [5] (Table 1, Example 1); 128 µg/mL in [5] (Table 2, Example 2); 32 µg/mL in test [6] (Table 1, Example 1); 32 µg/mL in [6] (Table 2, Example 2); 32 µg/mL in test [9]. Besides, the MIC was 16 µg/mL in test [10], 128 µg/mL in [11], 128 µg/mL in [12] and over 128 µg/mL in test [8]. In addition, the “activity against Gram-negative bacteria” value in test [7] (Example 1, statement in words) was “active”.
`NC(=O)c1ccc(CCc2cc(CCc3ccc(C(N)=O)cc3)cc(CCc3ccc(C(N)=O)cc3)c2)cc1` [Compound 6 (TSB030)]: the MIC was over 32.0 µg/mL in test [1] (Table 2, Example 2); over 32.0 µg/mL in [2]; over 32.0 µg/mL in test [3] (Table 2, Example 2); over 32.0 µg/mL in test [4] (Table 2, Example 2); over 32.0 µg/mL in [5] (Table 2, Example 2); over 32.0 µg/mL in test [6] (Table 2, Example 2). For the same compound, in [8], the MIC was over 32.0 µg/mL.
In the case of `CC(=O)ONc1ccc(CCc2cc(CCc3ccc(NOC(C)=O)cc3)cc(CCc3ccc(NOC(C)=O)cc3)c2)cc1` [Compound 9 (TSB016)], the MIC was over 32.0 µg/mL in [1] (Table 2, Example 2); over 32.0 µg/mL in test [2]; over 32.0 µg/mL in test [3] (Table 2, Example 2); over 32.0 µg/mL in test [4] (Table 2, Example 2); over 32.0 µg/mL in test [5] (Table 2, Example 2); over 32.0 µg/mL in test [6] (Table 2, Example 2). Moreover, the MIC in test [8] is over 32.0 µg/mL.
With `CN(C)c1ccc(/C=C/c2cc(/C=C/c3ccc(N(C)C)cc3)cc(/C=C/c3ccc(N(C)C)cc3)c2)cc1` [Compound 10], the MIC in test [1] (Table 2, Example 2) is over 128 µg/mL; in test [2], over 128 µg/mL; in [3] (Table 2, Example 2), over 128 µg/mL; in test [4] (Table 2, Example 2) it was over 128 µg/mL; in test [5] (Table 2, Example 2), over 128 µg/mL; in test [6] (Table 2, Example 2), over 128 µg/mL. Moreover, in test [8], the MIC is over 128 µg/mL.
As for `O=[N+]([O-])c1ccc(CCc2cc(CCc3ccc([N+](=O)[O-])cc3)cc(CCc3ccc([N+](=O)[O-])cc3)c2)cc1` [Compound 8 (TSB036)], the MIC was over 32.0 µg/mL in test [1] (Table 2, Example 2); over 32.0 µg/mL in [2]; over 32.0 µg/mL in test [3] (Table 2, Example 2); over 32.0 µg/mL in test [4] (Table 2, Example 2); over 32.0 µg/mL in [5] (Table 2, Example 2); over 32.0 µg/mL in test [6] (Table 2, Example 2). Further, the MIC in [8] is over 32.0 µg/mL.

The record behind these values is patent US20190185417A1, “NOVEL ANTIBIOTICS” (priority 2016, published 2019).
